Values quoted from earlier work, collected in patent publication US11839217B2, “Composition comprising a bioactive molecule” (EUCARYO BEHEER B.V., priority 2016, dated 2023).

- solubility in ethanol (ethanol): 40 to 1200 µg/mL
- solubility in water (water): 30 to 50 µg/mL
Structure (SMILES): C[C@@H]1C/C=C/C=C/C=C/C=C/[C@H](O[C@@H]2O[C@H](C)[C@@H](O)[C@H](N)[C@@H]2O)C[C@@H]2O[C@](O)(C[C@@H](O)C[C@H]3O[C@@H]3/C=C/C(=O)O1)C[C@H](O)[C@H]2C(=O)O [natamycin]
